Measurements: PubChem BioAssay (NCI)
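Briefly, cells in 96-well plates were exposed to five compound concentrations for 48 h, and endpoints were estimated by linear interpolation. GI50 = concentration required for 50% inhibition of growth. TGI denotes the concentration required for complete inhibition of growth.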

How the values were obtained:
Test in all cases: NCI anticancer screen, dose series, 48 h
HOP-62 NSCLC = tested on: HOP-62 NSCLC
OVCAR-4 ovarian = tested on: OVCAR-4 ovarian
OVCAR-8 ovarian = tested on: OVCAR-8 ovarian
HL-60(TB) leukemia = tested on: HL-60(TB) leukemia
SR leukemia = tested on: SR leukemia
DU-145 prostate = tested on: DU-145 prostate
U251 CNS = tested on: U251 CNS
SK-OV-3 ovarian = tested on: SK-OV-3 ovarian
COLO 205 colon = tested on: COLO 205 colon
OVCAR-5 ovarian = tested on: OVCAR-5 ovarian
HCT-116 colon = tested on: HCT-116 colon
TK-10 renal = tested on: TK-10 renal
SK-MEL-2 melanoma = tested on: SK-MEL-2 melanoma
PC-3 prostate = tested on: PC-3 prostate
HCC-2998 colon = tested on: HCC-2998 colon
K-562 leukemia = tested on: K-562 leukemia
SF-539 CNS = tested on: SF-539 CNS
NCI-H460 lung = tested on: NCI-H460 lung
SK-MEL-28 melanoma = tested on: SK-MEL-28 melanoma
M14 melanoma = tested on: M14 melanoma
RXF 393 renal = tested on: RXF 393 renal
LOX IMVI melanoma = tested on: LOX IMVI melanoma
NCI/ADR-RES ovarian = tested on: NCI/ADR-RES ovarian
786-0 renal = tested on: 786-0 renal
SF-295 CNS = tested on: SF-295 CNS
SW-620 colon = tested on: SW-620 colon
NCI-H226 lung = tested on: NCI-H226 lung
CCRF-CEM leukemia = tested on: CCRF-CEM leukemia
MDA-MB-231 breast = tested on: MDA-MB-231 breast
T-47D breast = tested on: T-47D breast
SK-MEL-5 melanoma = tested on: SK-MEL-5 melanoma
HT29 colon = tested on: HT29 colon
NCI-H23 lung = tested on: NCI-H23 lung
UACC-62 melanoma = tested on: UACC-62 melanoma
HOP-92 NSCLC = tested on: HOP-92 NSCLC
IGROV1 ovarian = tested on: IGROV1 ovarian
EKVX NSCLC = tested on: EKVX NSCLC
RPMI-8226 leukemia = tested on: RPMI-8226 leukemia
BT-549 breast = tested on: BT-549 breast
MDA-MB-435 = tested on: MDA-MB-435
KM12 colon = tested on: KM12 colon
A549 NSCLC = tested on: A549 NSCLC
UACC-257 melanoma = tested on: UACC-257 melanoma
MOLT-4 leukemia = tested on: MOLT-4 leukemia
ACHN renal = tested on: ACHN renal
SNB-19 CNS = tested on: SNB-19 CNS
SF-268 CNS = tested on: SF-268 CNS
MCF7 breast = tested on: MCF7 breast
NCI-H522 lung = tested on: NCI-H522 lung
A498 renal = tested on: A498 renal
MALME-3M melanoma = tested on: MALME-3M melanoma
UO-31 renal = tested on: UO-31 renal
CAKI-1 renal = tested on: CAKI-1 renal
SNB-75 CNS = tested on: SNB-75 CNS
SN12C renal = tested on: SN12C renal
HCT-15 colon = tested on: HCT-15 colon
OVCAR-3 ovarian = tested on: OVCAR-3 ovarian
HS 578T breast = tested on: HS 578T breast

Cc1ccc2c(n1)C(=O)C(Cl)=C(Nc1ccc(C(F)(F)F)cc1)C2=O gave a GI50 (HOP-62 NSCLC) greater than 100 µM, a TGI (HOP-62 NSCLC) greater than 100 µM and a GI50 (OVCAR-4 ovarian) of 1.69 µM. The TGI (OVCAR-4 ovarian) was 4.31 µM, the GI50 (OVCAR-8 ovarian) was 3.26 µM and the TGI (OVCAR-8 ovarian) was greater than 100 µM. The GI50 (HL-60(TB) leukemia) was 1.4 µM, the TGI (HL-60(TB) leukemia) was 3.76 µM and the GI50 (SR leukemia) was 0.367 µM. It also gave a TGI (SR leukemia) of 2.37 µM, a GI50 (DU-145 prostate) of 1.87 µM and a TGI (DU-145 prostate) of 3.41 µM. For the same compound, the GI50 (U251 CNS) was 4.93 µM, the TGI (U251 CNS) was 20.5 µM and the GI50 (SK-OV-3 ovarian) was greater than 100 µM. It also gave a TGI (SK-OV-3 ovarian) greater than 100 µM, a GI50 (COLO 205 colon) of 2.21 µM and a TGI (COLO 205 colon) of 4.83 µM. For the same compound, the GI50 (OVCAR-5 ovarian) was 5.07 µM, the TGI (OVCAR-5 ovarian) was 19.8 µM and the GI50 (HCT-116 colon) was 0.569 µM. It also gave a TGI (HCT-116 colon) of 2.02 µM, a GI50 (TK-10 renal) of 2.28 µM and a TGI (TK-10 renal) of 3.75 µM. The GI50 (SK-MEL-2 melanoma) was 7.2 µM, the TGI (SK-MEL-2 melanoma) was 32.8 µM and the GI50 (PC-3 prostate) was 3.7 µM. The TGI (PC-3 prostate) was 20.7 µM, the GI50 (HCC-2998 colon) was 3.14 µM and the TGI (HCC-2998 colon) was 9.98 µM. It also gave a GI50 (K-562 leukemia) of 0.291 µM, a TGI (K-562 leukemia) of 2.23 µM and a GI50 (SF-539 CNS) of 1.92 µM. It also gave a TGI (SF-539 CNS) of 3.95 µM, a GI50 (NCI-H460 lung) greater than 100 µM and a TGI (NCI-H460 lung) greater than 100 µM. The GI50 (SK-MEL-28 melanoma) was 2.06 µM, the TGI (SK-MEL-28 melanoma) was 3.85 µM and the GI50 (M14 melanoma) was 1.74 µM. The TGI (M14 melanoma) was 3.36 µM, the GI50 (RXF 393 renal) was 1.57 µM and the TGI (RXF 393 renal) was 2.95 µM. For the same compound, the GI50 (LOX IMVI melanoma) was 1.22 µM, the TGI (LOX IMVI melanoma) was 3.04 µM and the GI50 (NCI/ADR-RES ovarian) was 2.62 µM. It also gave a TGI (NCI/ADR-RES ovarian) of 8.06 µM, a GI50 (786-0 renal) of 1.84 µM and a TGI (786-0 renal) of 3.7 µM. The GI50 (SF-295 CNS) was greater than 100 µM, the TGI (SF-295 CNS) was greater than 100 µM and the GI50 (SW-620 colon) was 1.13 µM. For the same compound, the TGI (SW-620 colon) was 3.73 µM, the GI50 (NCI-H226 lung) was 1.89 µM and the TGI (NCI-H226 lung) was 4.72 µM. For the same compound, the GI50 (CCRF-CEM leukemia) was 0.879 µM, the TGI (CCRF-CEM leukemia) was 3.89 µM and the GI50 (MDA-MB-231 breast) was 1.84 µM. For the same compound, the TGI (MDA-MB-231 breast) was 4.63 µM, the GI50 (T-47D breast) was 1.55 µM and the TGI (T-47D breast) was 5.06 µM. The GI50 (SK-MEL-5 melanoma) was 6.03 µM, the TGI (SK-MEL-5 melanoma) was 21.2 µM and the GI50 (HT29 colon) was 2.81 µM. The TGI (HT29 colon) was 7.43 µM, the GI50 (NCI-H23 lung) was 2.02 µM and the TGI (NCI-H23 lung) was 5.58 µM. The GI50 (UACC-62 melanoma) was 2.74 µM, the TGI (UACC-62 melanoma) was 10.7 µM and the GI50 (HOP-92 NSCLC) was 1.49 µM. For the same compound, the TGI (HOP-92 NSCLC) was 3.19 µM, the GI50 (IGROV1 ovarian) was 1.82 µM and the TGI (IGROV1 ovarian) was 4.04 µM. It also gave a GI50 (EKVX NSCLC) of 1.68 µM, a TGI (EKVX NSCLC) of 3.98 µM and a GI50 (RPMI-8226 leukemia) of 2.23 µM. The TGI (RPMI-8226 leukemia) was 6.08 µM, the GI50 (BT-549 breast) was 1.78 µM and the TGI (BT-549 breast) was 3.33 µM. For the same compound, the GI50 (MDA-MB-435) was 2.12 µM, the TGI (MDA-MB-435) was 4.49 µM and the GI50 (KM12 colon) was 70.3 µM. The TGI (KM12 colon) was greater than 100 µM, the GI50 (A549 NSCLC) was greater than 100 µM and the TGI (A549 NSCLC) was greater than 100 µM. The GI50 (UACC-257 melanoma) was 1.7 µM, the TGI (UACC-257 melanoma) was 3.27 µM and the GI50 (MOLT-4 leukemia) was 0.347 µM. For the same compound, the TGI (MOLT-4 leukemia) was 2.99 µM, the GI50 (ACHN renal) was 1.82 µM and the TGI (ACHN renal) was 3.42 µM. For the same compound, the GI50 (SNB-19 CNS) was 11.6 µM, the TGI (SNB-19 CNS) was greater than 100 µM and the GI50 (SF-268 CNS) was 3.57 µM. It also gave a TGI (SF-268 CNS) of 16.5 µM, a GI50 (MCF7 breast) of 1.95 µM and a TGI (MCF7 breast) of 5.03 µM. It also gave a GI50 (NCI-H522 lung) of 2 µM, a TGI (NCI-H522 lung) of 4.93 µM and a GI50 (A498 renal) of 40.2 µM. For the same compound, the TGI (A498 renal) was greater than 100 µM, the GI50 (MALME-3M melanoma) was 1.9 µM and the TGI (MALME-3M melanoma) was 3.78 µM. For the same compound, the GI50 (UO-31 renal) was 1.37 µM, the TGI (UO-31 renal) was 2.75 µM and the GI50 (CAKI-1 renal) was 1.53 µM. For the same compound, the TGI (CAKI-1 renal) was 3.01 µM, the GI50 (SNB-75 CNS) was greater than 100 µM and the TGI (SNB-75 CNS) was greater than 100 µM. The GI50 (SN12C renal) was 2.31 µM, the TGI (SN12C renal) was 6.51 µM and the GI50 (HCT-15 colon) was 1.36 µM. For the same compound, the TGI (HCT-15 colon) was 3.13 µM, the GI50 (OVCAR-3 ovarian) was 1.61 µM and the TGI (OVCAR-3 ovarian) was 3.03 µM. It also gave a GI50 (HS 578T breast) of 5.46 µM and a TGI (HS 578T breast) of 59.7 µM.
